The source made the active and inactive calls. The rule behind the calls is not given here.

The target of this assay is Peptidyl-prolyl cis-trans isomerase FKBP1A (Homo sapiens) (UniProt P62942). The assay can be described thus: FKBP12 binders, biophysical, NMR detection (AID 608). The settings on record: NMR binding, purified FKBP12.
Peptidyl-prolyl cis-trans isomerase FKBP1A (Homo sapiens), sequence (P62942 whole entry, looked up): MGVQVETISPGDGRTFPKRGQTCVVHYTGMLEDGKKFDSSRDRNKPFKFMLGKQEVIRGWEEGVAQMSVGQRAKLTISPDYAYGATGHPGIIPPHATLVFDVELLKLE
What is called Kd is the free concentration of one partner at which half of the binding sites on the other are occupied at equilibrium, for simple one-to-one binding. Regarding `CCSc1nc(C)c(CC)c(C)c1C(N)=O`, the Kd is > 4 mM (inactive).

As to `CC(=O)c1c(O)c(C)c(O)c2c1OC1=CC(=O)C(C(C)=O)C(=O)C12C` (centres undefined), the Kd was > 4 mM (inactive).

As to `O=C(C1CCC(C(=O)N2CCCC2)CC1)N1CCCC1` (centres undefined), the Kd is > 4 mM (inactive).

Regarding `CCOC(=O)C1CCN(Cc2ccccc2)CC1`, the Kd was > 4 mM (inactive).

On to `Nc1nncn1C(=O)c1c(Cl)cccc1Cl`, for which the Kd was > 4 mM (inactive).

Consider `Nc1ccc(S(=O)(=O)N2CCCCC2)cc1`, for which the Kd was > 4 mM (inactive).

Consider `COc1c(-c2coc3cc4c(cc3c2=O)CC(O)C(C)(C)O4)ccc2c1C=CC(C)(C)O2` (centres undefined), for which the Kd was > 4 mM (inactive).

As to `NCc1cn2ccccc2n1`, the Kd is > 4 mM (inactive).

For `Cc1ccc(SCc2nc(-c3ccncc3)no2)cc1`, the Kd entry was “inactive”.

Turning to `O=S(=O)(Cc1ccccc1)N1CCCCCC1`, the Kd is > 4 mM (inactive).

As to `CC(=O)Oc1ccc2c(c1OC(C)=O)OCC1(O)Cc3c(cc(OC(C)=O)c(OC(C)=O)c3OC(C)=O)C21` (centres undefined), the Kd is > 4 mM (inactive).

Consider `Nc1n[nH]c(=S)n1-c1ccccc1`, for which the Kd is > 4 mM (inactive).

For the compound `ON=c1ccc2nc3ccccc3nc2cc1`, the Kd is > 4 mM (inactive).

As for `NC(CC(=O)O)C(=O)Nc1ccc(Cl)cc1` (centres undefined), the Kd was > 4 mM (inactive).

`CCC1=Nc2ccccc2-c2nnc(SC)nc2O1`: the Kd is > 4 mM (inactive).

As to `CC(C)(C)NC(=O)N1CCC(C(N)=O)CC1`, the Kd is > 4 mM (inactive).

For `COc1cccc(NC(=O)c2cnn(C)c2Cl)c1`, the Kd was > 4 mM (inactive).

As to `Cc1cc(N)on1`, the Kd was > 4 mM (inactive).

On to `CC(=O)Nc1ccc(NC(=O)/C=C\C(=O)O)cc1`, for which the Kd was > 4 mM (inactive).

As to `CC(C)(C)c1cc(CN)c(C(=O)O)o1`, the Kd was > 4 mM (inactive).

As for `O=C(O)CCC(=O)c1cccc2ccccc12`, the Kd is > 4 mM (inactive).

As to `CCCn1c(S(=O)(=O)O)nc2ccccc21`, the Kd is > 4 mM (inactive).

With `NC1=NC(=O)/C(=C/c2ccc(O)c(Cl)c2)S1`, the Kd is > 4 mM (inactive).

As to `Cc1ccc(N2C(=O)CC(=O)NC2=O)cc1`, the Kd was > 4 mM (inactive).

Take `COC1C=CC23c4cc5c(cc4CN(CC2O)[C@@H]3C1)OCO5` (some centres undefined): the Kd is > 4 mM (inactive).

For the compound `CSc1nc(O)cc(=O)[nH]1`, the Kd is > 4 mM (inactive).

Regarding `O=C1CSC(=Nc2cc(Cl)ccc2Cl)N1`, the Kd was > 4 mM (inactive).

For the compound `O=C(NCc1ccccn1)c1ccc(Br)s1`, the Kd was > 4 mM (inactive).

Consider `CCNC(CC(=O)Nc1ccc(F)cc1)C(=O)O` (centres undefined), for which the Kd is > 4 mM (inactive).

As for `CC1=NNC(=O)C1CCc1ccncc1` (centres undefined), the Kd is > 4 mM (inactive).

With `Cc1cc(N)ccc1NC(=O)c1ccco1`, the Kd is > 4 mM (inactive).

On to `O=C(Nc1ccc(N2CCOCC2)cc1)c1cnsn1`, for which the Kd was > 4 mM (inactive).

Consider `NC(=O)CSc1ccc(-c2ccccc2)nn1`, for which the Kd was > 4 mM (inactive).

Consider `CC(=O)O[C@H]1C[C@@H](OC(C)=O)C(C)(C)C2CC(=O)[C@]3(C)C(CC[C@@]4(C)[C@H](C(=O)O)OC(=O)C5OC543)[C@]21C` (some centres undefined), for which the Kd is > 4 mM (inactive).

Take `CCC(=O)Nc1cc(C(C)C)c(O)cc1C`: the Kd is > 4 mM (inactive).

As for `NC(=O)C12CC3CC(C1)C(=O)C(C3)C2`, the Kd was > 4 mM (inactive).

On to `CC(=O)Nc1cc(N2C(=O)C=CC2=O)ccc1Cl`, for which the Kd was > 4 mM (inactive).

For `COc1cc([C@@H]2c3cc4c(cc3C(OC3O[C@@H]5COC(C)O[C@H]5[C@H](O)[C@H]3O)C3COC(=O)[C@@H]32)OCO4)cc(OC)c1O` (some centres undefined), the Kd is > 4 mM (inactive).

For `CCOc1cc(S(=O)(=O)n2nc(C)cc2C)ccc1F`, the Kd is > 4 mM (inactive).

In the case of `Cn1ncc(NC(=O)Nc2ccc(F)cc2F)c1C(N)=O`, the Kd is > 4 mM (inactive).

Consider `CC(C)=CCC[C@](C)(O)C1CC=C(C)CC1` (some centres undefined), for which the Kd was > 4 mM (inactive).

Regarding `Cc1ccc(/C=C2/NC(=S)NC2=O)s1`, the Kd was > 4 mM (inactive).

For the compound `Nc1ccc(S(=O)(=O)N2CCOCC2)cc1`, the Kd was > 4 mM (inactive).

Regarding `CC(=O)O[C@@H]1C[C@@]2(C)[C@H](c3ccoc3)C[C@H]3O[C@]32[C@]2(C)C(=O)C(O)=C3C(C)(C)C(=O)C=C[C@]3(C)C12` (some centres undefined), the Kd was > 4 mM (inactive).

As for `COc1ccc(-c2coc3c(OC)c(OC)cc(O)c3c2=O)cc1`, the Kd was > 4 mM (inactive).

For the compound `Cc1cc(C(=O)N2CCN(c3ncccn3)CC2)cs1`, the Kd was > 4 mM (inactive).

Regarding `CSc1nnnn1-c1cccc(O)c1`, the Kd is > 4 mM (inactive).

As to `Cc1cc(N2C(=O)CCC2=O)n(-c2ccccc2)n1`, the Kd was > 4 mM (inactive).

In the case of `O=C(O)c1ccc(-c2cccs2)s1`, the Kd was > 4 mM (inactive).

With `COc1cccc(NC(=O)c2ncn[nH]2)c1`, the Kd is > 4 mM (inactive).

Consider `O=C1CSC(=Nc2ccc(Cl)cc2)N1`, for which the Kd is > 4 mM (inactive).

Regarding `CC1(C)C2CC[C@]3(C)C(C(=O)C=C4[C@@H]5C[C@@](C)(C(=O)O)CC[C@]5(C)CC[C@]43C)[C@@]2(C)CC[C@@H]1O` (some centres undefined), the Kd is > 4 mM (inactive).

Take `CC(=O)NC(O)C(=O)c1ccccc1` (centres undefined): the Kd was > 4 mM (inactive).

On to `CCN1CC2(C)CC[C@H](OC)[C@]34C2[C@H](O)C2(OCO[C@@]25C[C@H](OC)[C@H]2C[C@]3(O)C5[C@H]2O)C14`, for which the Kd was > 4 mM (inactive).

With `C[C@]12CCC(=O)C=C1CCC1C2C(=O)C[C@@]2(C)C1CC[C@]2(O)C(=O)CO` (some centres undefined), the Kd is > 4 mM (inactive).

Turning to `Cc1nc2nc(-c3ccco3)nn2c(C)c1Cl`, the Kd was > 4 mM (inactive).

For the compound `CCOC(=O)C1CCN(c2ncnc3nc[nH]c23)CC1`, the Kd was > 4 mM (inactive).

As to `CNC(=O)c1cc(C)c(-c2ccccc2)s1`, the Kd was > 4 mM (inactive).

Consider `O=S(=O)(c1cccc2cccnc12)N1CCOCC1`, for which the Kd was > 4 mM (inactive).

Regarding `NCC1COc2ccccc2O1` (centres undefined), the Kd is > 4 mM (inactive).

On to `O=S(=O)(Nc1ccc(Cl)c(Cl)c1)N1CCOCC1`, for which the Kd entry is “inactive”.

As to `NS(=O)(=O)c1ccc2c(c1)OCCO2`, the Kd was > 4 mM (inactive).

In the case of `COc1ccccc1CNc1nc2nc(C)cc(=O)n2[nH]1`, the Kd was > 4 mM (inactive).

In the case of `O=c1cc(-c2ccccc2)oc2c(O)c(O)ccc12`, the Kd was > 4 mM (inactive).

`CCSc1nc(N)c(NC(=O)c2ccco2)c(=O)[nH]1`: the Kd was > 4 mM (inactive).

For the compound `O=C(O)c1onc2ccccc12`, the Kd is > 4 mM (inactive).

On to `Nc1nc(-c2ccccc2)ns1`, for which the Kd is > 4 mM (inactive).

Regarding `COc1ccc(-c2coc3cc(OC)cc(OC)c3c2=O)cc1`, the Kd is > 4 mM (inactive).

As for `O=C(OCc1c(Cl)cccc1Cl)c1cnccn1`, the Kd is > 4 mM (inactive).

With `COc1cccc(Oc2ccc(N)cn2)c1`, the Kd was > 4 mM (inactive).

With `O=C(COc1ccccc1O)NCCO`, the Kd was > 4 mM (inactive).

As to `COc1cc2cc3c4cc(OC)c(OC)cc4cc[n+]3c(C)c2cc1OC`, the Kd is > 4 mM (inactive).

Turning to `O=C(NCC1CCNCC1)c1ccccn1`, the Kd was > 4 mM (inactive).

Turning to `CSc1ccccc1C(=O)N1CCOCC1`, the Kd is > 4 mM (inactive).

For `Cc1ccc(C)n1-c1ccc(C(=O)N2CCOCC2)cc1`, the Kd is > 4 mM (inactive).

As to `CCN1C(=O)c2cccc3c(S(N)(=O)=O)ccc1c23`, the Kd is > 4 mM (inactive).

For `CC1(C)Cc2nc3[nH]c(=S)[nH]c(=O)c3cc2CO1`, the Kd is > 4 mM (inactive).

As to `CC1(C)NC(=O)N(CCOc2ccc3c(c2)CCC3)C1=O`, the Kd is > 4 mM (inactive).

`Cc1cc(N)n(-c2ccccc2)n1`: the Kd was > 4 mM (inactive).

For `CCCn1c(C)cc(=O)[nH]c1=O`, the Kd was > 4 mM (inactive).

For `O=C1OCCC1Sc1nc2ccccc2c(=O)[nH]1` (centres undefined), the Kd was > 4 mM (inactive).

Take `CC(C)c1ccc(CCC(=O)N2CCOCC2)cc1`: the Kd was 0.0023 mM.

In the case of `CN(C)S(=O)(=O)NCc1ccc2c(c1)OCO2`, the Kd is > 4 mM (inactive).

In the case of `O=C1C2CCCCC2C(=O)N1Cc1cccnc1` (centres undefined), the Kd was > 4 mM (inactive).

With `CNC(=O)Cn1c(=O)n(C)c2ccccc21`, the Kd is > 4 mM (inactive).

For the compound `O=C(O)Cn1c(=O)sc2ccccc21`, the Kd was > 4 mM (inactive).

`CC(=O)Nc1ccc(S(=O)(=O)N(C)C)cc1`: the Kd was > 4 mM (inactive).

Consider `COc1ccc(/C=C2\NC(=S)N(C)C2=O)cc1O`, for which the Kd was > 4 mM (inactive).

For `OCc1snnc1-c1ccccc1`, the Kd is > 4 mM (inactive).

As to `O=C(Nc1ccon1)c1csc2c1CCCC2`, the Kd was > 4 mM (inactive).

Turning to `CC(=O)OCC(=O)[C@@]1(O)CCC2C3CC[C@@H]4C[C@H](OC(C)=O)CC[C@]4(C)C3C(=O)C[C@@]21C` (some centres undefined), the Kd was > 4 mM (inactive).

`CC(=O)Nc1cccc(-c2nc3ccccc3c(=O)o2)c1`: the Kd was > 4 mM (inactive).

As for `Cc1nc2ccccc2c2c1C(=O)N(N)C2=O`, the Kd was > 4 mM (inactive).

Turning to `CCC(C)C(=O)O[C@@H]1C[C@@]2(C)[C@H](c3ccoc3)OC(=O)CC23OC2(C)O[C@]14[C@]1(C)[C@@H](CC(=O)OC)C5(C)CC1(O)[C@](O)(C5OC(=O)C1(C)OC1C)[C@@H](OC(C)=O)[C@]34O2` (some centres undefined), the Kd was > 4 mM (inactive).

On to `Cc1cc(C(F)(F)F)n2nc(C(=O)O)c(Cl)c2n1`, for which the Kd was > 4 mM (inactive).

For the compound `Cc1occc1C(=O)Nc1nnc(C2CCCCC2)s1`, the Kd is > 4 mM (inactive).

Regarding `O=C1NC(=Nc2ccccc2Cl)SC1(CO)CO`, the Kd is > 4 mM (inactive).

As for `OCC1CN(Cc2ccccc2)CCO1` (centres undefined), the Kd is > 4 mM (inactive).

On to `COC(=O)c1ccc(C(=S)N2CCOCC2)cc1`, for which the Kd is > 4 mM (inactive).

(Values after PubChem BioAssay AID608 (Sanford-Burnham Center for Chemical Genomics, 2007).)
